Reference: ChEMBL document CHEMBL1201862, “PubChem BioAssay data set” (2004)
Where “and” joins values, the source holds several entries; their conditions need not be identical. Identical values can stand only once.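 Five compound concentrations were applied to cells in 96-well plates for 48 hours; endpoints were derived by simple linear interpolation of the resulting dose-response curve. At the GI50, growth is halved.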 Calls of active or inactive are those of the source. Cut-off read from the data, not from the text of the source: active = GI50 up to about 1.1 µM and inactive = higher.

What was measured:
Assay in all cases: NCI tumour cell line growth inhibition, 48 h
A498 = tested on: A498
ACHN = tested on: ACHN
CCRF-CEM = tested on: CCRF-CEM
COLO 205 = tested on: COLO 205
HCT-15 = tested on: HCT-15
HL-60 = tested on: HL-60
IGROV-1 = tested on: IGROV-1
Malme-3M = tested on: Malme-3M
NCI-H226 = tested on: NCI-H226
NCI-H460 = tested on: NCI-H460
PC-3 = tested on: PC-3
RPMI-8226 = tested on: RPMI-8226
SF-268 = tested on: SF-268
SF-295 = tested on: SF-295
SK-MEL-28 = tested on: SK-MEL-28
SN12C = tested on: SN12C
SW-620 = tested on: SW-620
T47D = tested on: T47D
U-251 = tested on: U-251
MDA-MB-435 = tested on: MDA-MB-435

Row | Compound | GI50 (A498) | GI50 (ACHN) | GI50 (CCRF-CEM) | GI50 (COLO 205) | GI50 (HCT-15) [µM] | GI50 (HL-60) | GI50 (IGROV-1) | GI50 (Malme-3M) | GI50 (NCI-H226) | GI50 (NCI-H460) | GI50 (PC-3) | GI50 (RPMI-8226) | GI50 (SF-268) | GI50 (SF-295) | GI50 (SK-MEL-28) | GI50 (SN12C) | GI50 (SW-620) | GI50 (T47D) | GI50 (U-251) | GI50 (MDA-MB-435)
1 | CS(=O)(=O)c1ccc(NNc2cc(=O)[nH]c(=O)[nH]2)cc1 | > 100 µM (inactive) | > 100 µM (inactive) | > 100 µM (inactive) | > 100 µM (inactive) | > 100 | 52.7 µM (inactive) | > 100 µM (inactive) | > 100 µM (inactive) | > 100 µM (inactive) | > 100 µM (inactive) | > 100 µM (inactive) | > 100 µM (inactive) | > 100 µM (inactive) | > 100 µM (inactive) | > 100 µM (inactive) | > 100 µM (inactive) | > 100 µM (inactive) | > 100 µM (inactive) | > 100 µM (inactive) | –
2 | CCOC(=O)c1c(-c2ccccc2)nc2ccccc2c1O | > 100 µM (inactive) | > 100 µM (inactive) | > 10 µM (inactive) | > 100 µM (inactive) | > 100 | > 100 µM (inactive) | > 100 µM (inactive) | > 100 µM (inactive) | – | > 100 µM (inactive) | > 100 µM (inactive) | > 100 µM (inactive) | > 100 µM (inactive) | > 100 µM (inactive) | > 100 µM (inactive) | – | > 100 µM (inactive) | > 100 µM (inactive) | > 100 µM (inactive) | –
3 | C=CC(C)(C)n1cc(C2=C3OC(=O)C(c4cn(C(C)(C)C=C)c5ccccc45)=C3OC2=O)c2ccccc21 | > 100 µM (inactive) | > 100 µM (inactive) | > 100 µM (inactive) | > 100 µM (inactive) | > 100 | > 100 µM (inactive) | > 100 µM (inactive) | > 100 µM (inactive) | > 100 µM (inactive) | > 100 µM (inactive) | > 100 µM (inactive) | > 100 µM (inactive) | > 100 µM (inactive) | > 100 µM (inactive) | > 100 µM (inactive) | > 100 µM (inactive) | > 100 µM (inactive) | – | > 100 µM (inactive) | > 100 µM (inactive)
4 | COc1ccc(-c2c(C#N)c(N)n(C3OC(CO)C(O)C(O)C3O)c(=S)c2C#N)cc1 (stereo not drawn) | > 100 µM (inactive) and 52.6 µM (inactive) | 87.9 µM (inactive) and 97.3 µM (inactive) | > 100 µM (inactive) | – | > 100 | > 100 µM (inactive) | 72.1 µM (inactive) | > 100 µM (inactive) | > 100 µM (inactive) | 97.1 µM (inactive) | > 100 µM (inactive) and 99.1 µM (inactive) | > 100 µM (inactive) | > 100 µM (inactive) | – | > 100 µM (inactive) | > 100 µM (inactive) | > 100 µM (inactive) and 73.1 µM (inactive) | > 100 µM (inactive) and 93.3 µM (inactive) | > 100 µM (inactive) | –
5 | CC1=C(CO)C(=O)O[C@@H]([C@@H](CO)[C@H]2CCC3C4C[C@@H](O)[C@@]5(O)CC=CC(=O)[C@]5(C)C4CC[C@@]32C)C1 (stereo partly drawn) | 63.4 µM (inactive) | 36.4 µM (inactive) | 34.1 µM (inactive) | 30 µM (inactive) | 32 | 31.2 µM (inactive) | > 100 µM (inactive) | 94 µM (inactive) | > 100 µM (inactive) | – | – | 34.3 µM (inactive) | 43.3 µM (inactive) | > 100 µM (inactive) | – | 55.2 µM (inactive) | 29 µM (inactive) | 86.3 µM (inactive) | – | 38.5 µM (inactive)
6 | NC(=S)N/N=C1\C(=O)C=C(Nc2ccc(Cl)cc2Cl)c2ccccc21 | 23.3 µM (inactive) | 10.3 µM (inactive) | – | 35.9 µM (inactive) | 31.1 | 84.3 µM (inactive) | 22.2 µM (inactive) | – | 33.6 µM (inactive) | 57.4 µM (inactive) | – | – | 9.38 µM (inactive) | 12.8 µM (inactive) | > 100 µM (inactive) | > 100 µM (inactive) | > 100 µM (inactive) | 23.5 µM (inactive) | 11 µM (inactive) | > 100 µM (inactive)
7 | CCOC(=O)c1ccc(-c2ccc(Cl)cc2)[nH]1 | – | > 10 µM (inactive) | > 10 µM (inactive) | – | > 10 | > 10 µM (inactive) | > 10 µM (inactive) | > 10 µM (inactive) | 8.47 µM (inactive) | > 10 µM (inactive) | 0.0161 µM (active) | – | > 10 µM (inactive) | > 10 µM (inactive) | – | > 10 µM (inactive) | – | – | > 10 µM (inactive) | > 10 µM (inactive)
8 | Cc1ccccc1S(=O)(=O)Nn1cnc2ccc(S(=O)(=O)Nc3ccc(Cl)cc3)cc2c1=O | – | > 100 µM (inactive) | > 100 µM (inactive) | > 100 µM (inactive) | > 100 | > 100 µM (inactive) | 7.59 µM (inactive) | > 100 µM (inactive) | > 100 µM (inactive) | > 100 µM (inactive) | 16.1 µM (inactive) | 51.8 µM (inactive) | > 100 µM (inactive) | 48.4 µM (inactive) | > 100 µM (inactive) | > 100 µM (inactive) | > 100 µM (inactive) | – | > 100 µM (inactive) | 82.8 µM (inactive)
9 | Cc1cccc2c1Oc1cc(Cl)ccc1C2NC(=O)CCN1CCN(CCO)CC1 (stereo not drawn) | – | – | 17.7 µM (inactive) | 17.7 µM (inactive) | 18.4 | 9.46 µM (inactive) | 22.1 µM (inactive) | – | – | 19.1 µM (inactive) | 14.5 µM (inactive) | – | 23.3 µM (inactive) | 18.3 µM (inactive) | 3.13 µM (inactive) | 15 µM (inactive) | 18.3 µM (inactive) | 17.4 µM (inactive) | 15.1 µM (inactive) | 14 µM (inactive)
10 | COc1cc(Br)c(CC2=NCCc3cc(OC)c(OC)cc32)cc1OC | 14.9 µM (inactive) | 14.8 µM (inactive) | 19.7 µM (inactive) | 14.1 µM (inactive) | 31 | 2.33 µM (inactive) | 12.2 µM (inactive) | 25.9 µM (inactive) | 11 µM (inactive) | 2.35 µM (inactive) | – | 18.3 µM (inactive) | 51.2 µM (inactive) | 0.7 µM (active) | 19.7 µM (inactive) | 15.3 µM (inactive) | 18 µM (inactive) | – | 11.3 µM (inactive) | –
11 | C=CCNC1=C2C[C@@H](C)C[C@@H](OC)[C@H](OC(=O)CN)[C@H](C)/C=C(\C)[C@@H](OC(N)=O)[C@H](OC)/C=C\C=C(/C)C(=O)NC(=CC1=O)C2=O | 0.74 µM (active) | 5.13 µM (inactive) | 1.27 µM (inactive) | 0.204 µM (active) | 3.49 | 1.69 µM (inactive) | 0.927 µM (active) | 0.456 µM (active) | – | 0.504 µM (active) | 0.4 µM (active) | 3.59 µM (inactive) | 5.73 µM (inactive) | 0.488 µM (active) | 2.05 µM (inactive) | 0.497 µM (active) | 0.183 µM (active) | – | 1.29 µM (inactive) | 0.418 µM (active)
12 | C[C@]12CCCC(=O)C1C[C@H](C(=O)O)CC2 (stereo partly drawn) | > 100 µM (inactive) | > 100 µM (inactive) | > 100 µM (inactive) | > 100 µM (inactive) | > 100 | > 100 µM (inactive) | > 100 µM (inactive) | > 100 µM (inactive) | > 100 µM (inactive) | > 100 µM (inactive) | – | > 100 µM (inactive) | > 100 µM (inactive) | > 100 µM (inactive) | > 100 µM (inactive) | > 100 µM (inactive) | > 100 µM (inactive) | – | > 100 µM (inactive) | –
13 | CCOC(=O)c1nc2ccccc2nc1NCc1ccc(OC)cc1 | 32.2 µM (inactive) | > 100 µM (inactive) | > 100 µM (inactive) | > 100 µM (inactive) | > 100 | > 100 µM (inactive) | > 100 µM (inactive) | > 100 µM (inactive) | > 100 µM (inactive) | 82.8 µM (inactive) | – | > 100 µM (inactive) | > 100 µM (inactive) | > 100 µM (inactive) | > 100 µM (inactive) | – | > 100 µM (inactive) | 80.9 µM (inactive) | 64.3 µM (inactive) | > 100 µM (inactive)
14 | CC1=C(C)C(=O)C2=C(OCCCO2)C1=O | > 10 µM (inactive) | 18.4 µM (inactive) | 2.43 µM (inactive) | 34.2 µM (inactive) | > 100 | 3.61 µM (inactive) | 18.2 µM (inactive) | > 10 µM (inactive) | > 10 µM (inactive) | > 10 µM (inactive) | – | 16.5 µM (inactive) | 18.3 µM (inactive) | 29.1 µM (inactive) | 35.6 µM (inactive) | > 10 µM (inactive) | 17 µM (inactive) | – | > 100 µM (inactive) | –
15 | C=CCOc1cc2c(cc1C(C)c1ccc(OC)cc1)OCO2 (stereo not drawn) | 2.08 µM (inactive) | 0.612 µM (active) | 0.443 µM (active) | 0.471 µM (active) | 0.489 | 0.196 µM (active) | – | 0.647 µM (active) | 0.813 µM (active) | 0.409 µM (active) | 0.352 µM (active) | 0.78 µM (active) | 4.88 µM (inactive) | 0.299 µM (active) | > 100 µM (inactive) | 0.849 µM (active) | 0.375 µM (active) | – | 0.447 µM (active) | 0.251 µM (active)
16 | COC(=O)C(CC(=O)Nc1ccc(C)cc1)C(=O)C(=O)Nc1ccccc1C(C)C (stereo not drawn) | > 100 µM (inactive) | > 100 µM (inactive) | > 100 µM (inactive) | 89.7 µM (inactive) | > 100 | > 100 µM (inactive) | > 100 µM (inactive) | > 100 µM (inactive) | > 100 µM (inactive) | > 100 µM (inactive) | – | 62.4 µM (inactive) | > 100 µM (inactive) | > 100 µM (inactive) | > 100 µM (inactive) | > 100 µM (inactive) | 22.2 µM (inactive) | – | > 100 µM (inactive) | –
